Results on 1 molecule are retold here after ChEMBL document CHEMBL1122674, “Aporphines. 58. N-(2-chloroethyl) [8,9-2H]norapomorphine, an irreversible ligand for dopamine receptors: synthesis and application” (J Med Chem, 1984).

The target of one assay is Dopamine receptor. The assay can be described thus: Compound was evaluated for the competitive binding with [3H]spiperone binding to Canine striatal membranes. On the set-up: species or system Canis lupus familiaris.
The target of assay [1] is Dopamine receptor (Homo sapiens) (UniProt P14416+P35462+P21918+P21917+P21728). Briefly: Compound was evaluated at 100 uM concentration to displace [3H]spiperone and result indicates the percent displacement. It is filed as protein assay. The note with it: Canis lupus familiaris.

At Dopamine receptor, `Oc1ccc2c(c1O)-c1cccc3c1[C@@H](C2)N(CCCl)CC3` returned an IC50 app of 8 µM. Moreover, the Displacement in assay [1] is 70%.
